Measurements as given in patent US6008220A, “Aromatic keto-acids and their derivatives as inhibitors of matrix metalloproteinases” (priority 1998, dated 1999).
Where a name gives a salt, the structure may show the parent alone. Read-outs that look alike come from different tables or passages of the source.

Assays:
[1] = target: GCD (recombinant gelatinase A catalytic domain); assay: Inhibition of recombinant gelatinase A catalytic domain (GCD), thiopeptolide substrate Ac-Pro-Leu-Gly-thioester-Leu-Leu-Gly-OEt; type: biochemical
Protocol: Experiments were carried out with the catalytic domains of the proteinases.

[2] = target: SCD (stromelysin-1 catalytic domain) (Homo sapiens, UniProt P08254); assay: Inhibition of stromelysin-1 catalytic domain (SCD), thiopeptolide substrate Ac-Pro-Leu-Gly-thioester-Leu-Leu-Gly-OEt; type: biochemical
Sequence of SCD (stromelysin-1 catalytic domain) (P08254 100-272 limits assumed): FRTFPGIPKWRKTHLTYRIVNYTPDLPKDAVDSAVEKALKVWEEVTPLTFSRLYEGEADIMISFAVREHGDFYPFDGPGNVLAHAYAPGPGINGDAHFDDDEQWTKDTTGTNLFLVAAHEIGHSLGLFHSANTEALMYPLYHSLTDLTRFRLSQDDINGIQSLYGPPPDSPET
Protocol: Experiments were carried out with the catalytic domains of the proteinases. […] IC50 values were determined using a thiopeptolide substrate, Ac-Pro-Leu-Gly-thioester-Leu-Leu-Gly-OEt (Ye Q.-Z., Johnson L. L., Hupe D. J., and Baragi V., "Purification and Characterization of the Human Stromelysin Catalytic Domain Expressed in Escherichia coli", Biochemistry, 1992;31:11231-11235).

[3] = tested on: human ovarian carcinoma xenografts; conditions: mice bearing human ovarian carcinoma xenografts; cited from earlier work
[4] = tested on: experimental allergic encephalomyelitis (EAE); conditions: dose dependent; cited from earlier work
[5] = tested on: pig articular cartilage; conditions: cited from earlier work
[6] = tested on: bovine nasal cartilage; conditions: cited from earlier work

Row | IC50 [2] [nM] | IC50 [1] [nM] | Compound | also measured
1 |  |  | CNC(=O)[C@H](Cc1ccccc1)NC(=O)[C@H](CC(C)C)[C@H](CSc1cccs1)C(=O)NO [BB-94] | survival [3]: prolonged the survival; tumor burden [3]: decreased the tumor burden
2 | 400 | 14000 | CC(CC(=O)O)CC(=O)c1ccc(N2CCC(c3ccccc3)CC2)cc1 (racemic) [Example 7, (±)3-Methyl-5-oxo-5-[4-(4-phenyl-piperidin-1-yl)-phenyl]-pentanoic acid] | 
3 |  |  | CNC(=O)[C@H](Cc1c[nH]c2ccccc12)NC(=O)[C@@H](CC(=O)NO)CC(C)C [GM6001] | development or clinical expression of EAE [4]: suppressed the development or reversed the clinical expression
4 |  | 40 | O=C(CCC(=O)c1ccc(N2CCC(c3ccccc3)CC2)cc1)NO [Example 3, N-Hydroxy-4-oxo-4-[4-(4-phenyl-piperidin-1-yl)-phenyl]-butyramide] | 
5 |  |  | TIMP-1: natural endogenous inhibitors of MMPs (TIMPs) | formation of collagen fragments [5]: prevented the formation of collagen fragments; formation of proteoglycan fragments [5]: not proteoglycan fragments; formation of collagen fragments [6]: prevented the formation of collagen fragments; formation of proteoglycan fragments [6]: not proteoglycan fragments
6 | 2900 | 6300 | O=C(O)CCC(=NOCc1ccccc1)c1ccc(N2CCC(c3ccccc3)CC2)cc1 [Example 5, E/Z-4-Benzyloxyimino-4-[4-(4-phenyl-piperidin-1-yl)-phenyl]-butyric acid] | 
7 |  | 1600 | O=C(O)CCC(=O)c1ccc(N2CCN(c3ccccc3)CC2)cc1 [Example 6, 4-Oxo-4-[4-(4-phenyl-piperazin-1-yl)-phenyl]-butyric acid] | 
8 | 20 | 150 | O=C(O)CCC(=NO)c1ccc(N2CCC(c3ccccc3)CC2)cc1 [Example 4, E/Z-4-Hydroxyimino-4-[4-(4-phenyl-piperidin-1-yl)-phenyl]-butyric acid] | 

Row | Compound | IC50 [2] [nM] | IC50 [1] [nM] | also measured
9 | O=C(O)CCC(=O)c1ccc(N2CCC(c3ccccc3)CC2)cc1 [potassium salt] | 80 |  | IC50 ([1]; potassium salt): 560 nM
10 | O=C(O)CCC(=O)c1ccc(N2CCC(c3ccccc3)CC2)cc1 [Example 1, 4-Oxo-4-[4-(4-phenyl-piperidin-1-yl)-phenyl]-butyric acid] |  | 1300 | 
